{"source": "patent US20080200403A1", "about": "“9A-Carbamoyl and Thiocarbamoyl Azalides with Anti-Inflammatory Activity” (GLAXOSMITHKLINE, priority 2005, published 2008)", "format_in_all_cases": "cell-based", "key": {"[1]": {"system": "TNF-α", "assay": "Inhibition of TNF-α production by stimulated human peripheral blood leukocytes in vitro", "conditions": "PBL; for inhibition at 10 µM / inhibition at 50 µM: Homo sapiens, Leukocyte, read-out: Percentage of inhibition of TNF-α production", "outline": "(§1)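 Dextran-isolated human PBL (3-5×10^6 per well) in RPMI with 10% FCS were preincubated 2 h at 37 °C with compounds at 50 μM or 10 μM final, then stimulated overnight with 2 μg/mL LPS, 1 μg/mL PMA or 120 μg/mL zymosan. Supernatant cytokines by sandwich ELISA; % inhibition versus stimulated untreated control.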"}, "[2]": {"system": "IL-1α", "assay": "Inhibition of IL-1 production by stimulated human peripheral blood leukocytes in vitro", "conditions": "PBL; for inhibition at 10 µM / inhibition at 50 µM: Homo sapiens, Leukocyte, read-out: Percentage of inhibition of IL-1α production"}, "[3]": {"system": "IL-6", "assay": "Inhibition of IL-6 production by stimulated human peripheral blood leukocytes in vitro", "conditions": "PBL; for inhibition at 10 µM / inhibition at 50 µM: Homo sapiens, Leukocyte, read-out: Percentage of inhibition of IL-6 production", "outline": "as §1"}, "[4]": {"system": "IL-8", "assay": "Inhibition of IL-8 production by stimulated human peripheral blood leukocytes in vitro", "conditions": "PBL; for inhibition at 10 µM / inhibition at 50 µM: Homo sapiens, Leukocyte, read-out: Percentage of inhibition of IL-8 production", "outline": "as §1"}, "[5]": {"system": "human peripheral blood mononuclear cells (PBMC)", "assay": "Human T-cell proliferation in vitro (3H-thymidine incorporation)", "conditions": "for inhibition at 10 µM / inhibition at 50 µM: Homo sapiens, PBMC, read-out: Percentage of inhibition of proliferation of stimulated PBMC", "method": "Influence of substances at two different concentrations (50 μM and 10 μM) on cell proliferation of human peripheral blood mononuclear cells (PBMC) was assessed.\nHeparinized peripheral blood was obtained from healthy donors, and PBMC were isolated by Histopaque 1077 (Sigma, USA) density centrifugation at 400×g for 30 minutes. 5×10^4 cells/well were cultured for 3 days in the RPMI medium as described above, in the presence (positive control) or absence (negative control) of stimulators [PHA (2.5 μg/mL) (Sigma, USA), or both PMA (10 ng/mL) (Sigma, USA) and ionomycin (500 ng/mL) (Calbiochem, USA)], and in the presence of the test compounds, at 37° C. in an atmosphere of 5% CO2 and 90% humidity. The cells were pulsed with 1 μCi of ^3H-thymidine (Amersham, USA) per well during the last 18 h of the culture, and were harvested on the 96-well filter (Packard Bioscience, USA) using a multiple cell harvester (Packard, USA). The incorporation of ^3H-thymidine in activated cells were measured using TopCount NXT (Packard, USA).\nInhibition (as percentage) was calculated using the following formula: % inhibition=(1−(^3H)thymidine incorporation expressed in counts per minute (cpm) in sample/(^3H)thymidine incorporation expressed in cpm in positive control)×100\nwhere positive control refers to stimulated samples, not treated with substances."}, "[6]": {"system": "A549", "assay": "MTT cytotoxicity assay on A549 cell line", "conditions": "human, 24 h", "method": "To determine whether the anti-inflammatory activity of the test compounds was due to observed inhibition of cytokine production and inhibition of proliferation in vitro, and was not a consequence of cellular cytotoxicity, measurement of succinate dehydrogenase activity in living cells was performed. Cells were cultured for 24 h in RPMI medium as described above at 37° C. in the presence of the test compounds at concentrations of 50 μM and 12.5 μM. MTT [3-(4,5-dimethylthiazole-2-yl)-2,5-diphenyl tetrazolium bromide] (Promega, USA), a detection reagent, was then added and the cultures were incubated for 0.5-2 h. The amount of MTT-Formazan produced was determined using a spectrophotometer at 490 nm (Mosmann, J. Imnunol. Methods, 1983, 65: 55-63). Percentage of viable cells was calculated using the following formula:\n% viable cells=([…]OD490 treated cells/OD490 nontreated cells)×100"}, "[7]": {"conditions": "zymosan stimulated, compound 10 μM"}, "[8]": {"conditions": "zymosan stimulated, compound 50 μM"}, "[9]": {"conditions": "PMA + ionomycin stimulated, compound 10 μM"}, "[10]": {"conditions": "PMA + ionomycin stimulated, compound 50 μM"}}, "note": "Read-outs that look alike come from different tables or passages of the source."}
{"smiles": "CCC1OC(=O)C(C)C(O)C(C)C(OC2OC(C)CC(N(C)C)C2O)C(C)(O)CC(C)CN(C(=S)NCc2ccccc2)C(C)C(O)C1(C)O", "note": "(stereo not shown) [Compound 1]", "values": [{"measurement": "Percentage of inhibition of TNF-α production", "setting": "[1]; LPS stimulated, compound 10 μM", "value": 0, "unit": "%"}, {"measurement": "Percentage of inhibition of TNF-α production", "setting": "[1]; LPS stimulated, compound 50 μM", "value": 33, "unit": "%"}, {"measurement": "Percentage of inhibition of TNF-α production", "setting": "[1]; PMA stimulated, compound 10 μM", "value": 2, "unit": "%"}, {"measurement": "Percentage of inhibition of TNF-α production", "setting": "[1]; PMA stimulated, compound 50 μM", "value": 37, "unit": "%"}, {"measurement": "Percentage of inhibition of TNF-α production", "setting": "[1]; [7]", "value": 34, "unit": "%"}, {"measurement": "Percentage of inhibition of TNF-α production", "setting": "[1]; [8]", "value": 72, "unit": "%"}, {"measurement": "Percentage of inhibition of IL-1α production", "setting": "[2]; LPS stimulated, compound 10 μM", "value": 52, "unit": "%"}, {"measurement": "Percentage of inhibition of IL-1α production", "setting": "[2]; LPS stimulated, compound 50 μM", "value": 78, "unit": "%"}, {"measurement": "Percentage of inhibition of IL-1α production", "setting": "[2]; PMA stimulated, compound 10 μM", "value": 38, "unit": "%"}, {"measurement": "Percentage of inhibition of IL-1α production", "setting": "[2]; PMA stimulated, compound 50 μM", "value": 47, "unit": "%"}, {"measurement": "Percentage of inhibition of IL-1α production", "setting": "[2]; [7]", "value": 65, "unit": "%"}, {"measurement": "Percentage of inhibition of IL-1α production", "setting": "[2]; [8]", "value": 57, "unit": "%"}, {"measurement": "Percentage of inhibition of IL-6 production", "setting": "[3]; LPS stimulated, compound 10 μM", "value": 4, "unit": "%"}, {"measurement": "Percentage of inhibition of IL-6 production", "setting": "[3]; LPS stimulated, compound 50 μM", "value": 22, "unit": "%"}, {"measurement": "Percentage of inhibition of IL-6 production", "setting": "[3]; PMA stimulated, compound 10 μM", "value": 22, "unit": "%"}, {"measurement": "Percentage of inhibition of IL-6 production", "setting": "[3]; PMA stimulated, compound 50 μM", "value": 21, "unit": "%"}, {"measurement": "Percentage of inhibition of IL-6 production", "setting": "[3]; [7]", "value": 23, "unit": "%"}, {"measurement": "Percentage of inhibition of IL-6 production", "setting": "[3]; [8]", "value": 59, "unit": "%"}, {"measurement": "Percentage of inhibition of IL-8 production", "setting": "[4]; LPS stimulated, compound 10 μM", "value": 40, "unit": "%"}, {"measurement": "Percentage of inhibition of IL-8 production", "setting": "[4]; LPS stimulated, compound 50 μM", "value": 0, "unit": "%"}, {"measurement": "Percentage of inhibition of IL-8 production", "setting": "[4]; PMA stimulated, compound 10 μM", "value": 4, "unit": "%"}, {"measurement": "Percentage of inhibition of IL-8 production", "setting": "[4]; PMA stimulated, compound 50 μM", "value": 0, "unit": "%"}, {"measurement": "Percentage of inhibition of IL-8 production", "setting": "[4]; [7]", "value": 12, "unit": "%"}, {"measurement": "Percentage of inhibition of IL-8 production", "setting": "[4]; [8]", "value": 79, "unit": "%"}, {"measurement": "Percentage of inhibition of proliferation of stimulated PBMC", "setting": "[5]; PHA stimulated, compound 10 μM", "value": 21, "unit": "%"}, {"measurement": "Percentage of inhibition of proliferation of stimulated PBMC", "setting": "[5]; PHA stimulated, compound 50 μM", "value": 95, "unit": "%"}, {"measurement": "Percentage of inhibition of proliferation of stimulated PBMC", "setting": "[5]; [9]", "value": 10, "unit": "%"}, {"measurement": "Percentage of inhibition of proliferation of stimulated PBMC", "setting": "[5]; [10]", "value": 52, "unit": "%"}]}
{"smiles": "CC[C@H]1OC(=O)[C@H](C)[C@@H](O[C@H]2C[C@@](C)(OC)[C@@H](O)[C@H](C)O2)[C@H](C)[C@@H](O[C@@H]2O[C@H](C)C[C@H](N(C)C)[C@H]2O)[C@](C)(O)C[C@@H](C)CN(C(=S)Nc2ccccc2F)[C@H](C)[C@@H](O)[C@]1(C)O", "note": "[Compound 5]", "values": [{"measurement": "inhibition at 10 µM", "setting": "[1]; LPS stimulated, compound 10 μM", "value": 19, "unit": "%"}, {"measurement": "inhibition at 50 µM", "setting": "[1]; LPS stimulated, compound 50 μM", "value": 45, "unit": "%"}, {"measurement": "inhibition at 10 µM", "setting": "[1]; PMA stimulated, compound 10 μM", "value": 62, "unit": "%"}, {"measurement": "inhibition at 50 µM", "setting": "[1]; PMA stimulated, compound 50 μM", "value": 85, "unit": "%"}, {"measurement": "inhibition at 10 µM", "setting": "[1]; [7]", "value": 49, "unit": "%"}, {"measurement": "inhibition at 50 µM", "setting": "[1]; [8]", "value": 76, "unit": "%"}, {"measurement": "inhibition at 10 µM", "setting": "[2]; LPS stimulated, compound 10 μM", "value": 41, "unit": "%"}, {"measurement": "inhibition at 50 µM", "setting": "[2]; LPS stimulated, compound 50 μM", "value": 10, "unit": "%"}, {"measurement": "inhibition at 10 µM", "setting": "[2]; PMA stimulated, compound 10 μM", "value": 14, "unit": "%"}, {"measurement": "inhibition at 50 µM", "setting": "[2]; PMA stimulated, compound 50 μM", "value": 14, "unit": "%"}, {"measurement": "inhibition at 10 µM", "setting": "[2]; [7]", "value": 27, "unit": "%"}, {"measurement": "inhibition at 50 µM", "setting": "[2]; [8]", "value": 41, "unit": "%"}, {"measurement": "inhibition at 10 µM", "setting": "[3]; LPS stimulated, compound 10 μM", "value": 64, "unit": "%"}, {"measurement": "inhibition at 50 µM", "setting": "[3]; LPS stimulated, compound 50 μM", "value": 72, "unit": "%"}, {"measurement": "inhibition at 10 µM", "setting": "[3]; PMA stimulated, compound 10 μM", "value": 44, "unit": "%"}, {"measurement": "inhibition at 50 µM", "setting": "[3]; PMA stimulated, compound 50 μM", "value": 60, "unit": "%"}, {"measurement": "inhibition at 10 µM", "setting": "[3]; [7]", "value": 66, "unit": "%"}, {"measurement": "inhibition at 50 µM", "setting": "[3]; [8]", "value": 88, "unit": "%"}, {"measurement": "inhibition at 10 µM", "setting": "[4]; LPS stimulated, compound 10 μM", "value": 16, "unit": "%"}, {"measurement": "inhibition at 50 µM", "setting": "[4]; LPS stimulated, compound 50 μM", "value": 42, "unit": "%"}, {"measurement": "inhibition at 10 µM", "setting": "[4]; PMA stimulated, compound 10 μM", "value": 23, "unit": "%"}, {"measurement": "inhibition at 50 µM", "setting": "[4]; PMA stimulated, compound 50 μM", "value": 69, "unit": "%"}, {"measurement": "inhibition at 10 µM", "setting": "[4]; [7]", "value": 20, "unit": "%"}, {"measurement": "inhibition at 50 µM", "setting": "[4]; [8]", "value": 46, "unit": "%"}, {"measurement": "inhibition at 10 µM", "setting": "[5]; PHA stimulated, compound 10 μM", "value": 0, "unit": "%"}, {"measurement": "inhibition at 50 µM", "setting": "[5]; PHA stimulated, compound 50 μM", "value": 72, "unit": "%"}, {"measurement": "inhibition at 10 µM", "setting": "[5]; [9]", "value": 20, "unit": "%"}, {"measurement": "inhibition at 50 µM", "setting": "[5]; [10]", "value": 87, "unit": "%"}, {"measurement": "Percentage of viable cells after treatment", "setting": "[6]; 12.5 μM", "value": 100, "unit": "%"}, {"measurement": "Percentage of viable cells after treatment", "setting": "[6]; 50 μM", "value": 100, "unit": "%"}]}
